Data taken from ChEMBL document CHEMBL3217486, “Novel indolizine compounds as potent inhibitors of phosphodiesterase IV (PDE4): structureactivity relationship” (Medchemcomm, 2011).

These molecules were tested against Phosphodiesterase 4 (Homo sapiens, UniProt P27815+Q08499+Q07343+Q08493) (assay: Inhibition of PDE4 isolated from human U937 cells using [3H]-cAMP as substrate after 30 mins by liquid scintillation counting analysis). Details: u-937.
Format: cell-free

Point of comparison: `CC(C)c1ccc(Cc2cc(C(=O)C(=O)Nc3cccnc3)c3ccccn23)cc1`, IC50 362 nM. Against it:
- O=C(Nc1cccnc1)C(=O)c1cc(Cc2ccccc2)n2ccccc12 — within 1.5-fold, 348 nM
- O=C(Nc1cccnc1)C(=O)c1cc(Cc2ccc(F)cc2)n2ccccc12 — within 1.5-fold, 341 nM
- O=C(Nc1cccnc1)C(=O)c1cc(Cc2ccc(Cl)cc2)n2ccccc12 — 2.2-fold lower, 165 nM
- COc1ccc(Cc2cc(C(=O)C(=O)Nc3cccnc3)c3ccccn23)cc1 — within 1.5-fold, 447 nM
- O=C(Nc1cccnc1)C(=O)c1cc(Cc2ccc(O)cc2)n2ccccc12 — within 1.5-fold, 327 nM
- O=C(Nc1cccnc1)C(=O)c1cc(Cc2ccc([N+](=O)[O-])cc2)n2ccccc12 — 1.6-fold higher, 569 nM
- Nc1ccc(Cc2cc(C(=O)C(=O)Nc3cccnc3)c3ccccn23)cc1 — 2.3-fold higher, 824 nM
- N#Cc1ccc(Cc2cc(C(=O)C(=O)Nc3cccnc3)c3ccccn23)cc1 — 2-fold higher, 719 nM
- O=C(Nc1cccnc1)C(=O)c1cc(Cc2ccc(C(F)(F)F)cc2)n2ccccc12 — within 1.5-fold, 372 nM
- O=C(Nc1cccnc1)C(=O)c1cc(Cc2ccc(F)cc2)n2ccc(O)cc12 — within 1.5-fold, 414 nM
- O=C(Nc1cccnc1)C(=O)c1cc(Cc2ccc(F)cc2)n2ccc(Cl)cc12 — 1.5-fold lower, 239 nM
- COc1ccn2c(Cc3ccc(Cl)cc3)cc(C(=O)C(=O)Nc3cccnc3)c2c1 — 2.8-fold higher, 1000 nM
- N#Cc1ccc(Cc2cc(C(=O)C(=O)Nc3cccnc3Cl)c3ccccn23)cc1 — 13-fold higher, 4700 nM
- O=C(Nc1c(Cl)ccnc1Cl)C(=O)c1cc(Cc2ccc(Cl)cc2)n2ccccc12 — 4.3-fold lower, 84 nM
- N#Cc1ccc(Cc2cc(C(=O)C(=O)Nc3c(Cl)ccnc3Cl)c3ccccn23)cc1 — within 1.5-fold, 250 nM
- O=C(Nc1c(Br)ccnc1Br)C(=O)c1cc(Cc2ccc(F)cc2)n2ccccc12 — 28-fold higher, 10000 nM
- COc1ccnc(OC)c1NC(=O)C(=O)c1cc(Cc2ccc(C#N)cc2)n2ccccc12 — 28-fold higher, 10000 nM
- COc1ccc(NC(=O)C(=O)c2cc(Cc3ccc(C#N)cc3)n3ccccc23)cn1 — 4.1-fold higher, 1500 nM
- N#Cc1ccc(Cc2cc(C(=O)C(=O)Nc3c(Cl)cncc3Cl)c3ccccn23)cc1 — 3.1-fold lower, 116 nM
- O=C(Nc1c(Cl)cncc1Cl)C(=O)c1cc(Cc2ccc(Cl)cc2)n2ccccc12 — 23-fold lower, 16 nM
- COc1ccc(Cc2cc(C(=O)C(=O)Nc3c(Cl)cncc3Cl)c3ccccn23)cc1 — 9.1-fold lower, 40 nM
- O=C(Nc1c(Cl)cncc1Cl)C(=O)c1cc(Cc2ccc(O)cc2)n2ccccc12 — 24-fold lower, 15 nM
- O=C(Nc1c(Cl)cncc1Cl)C(=O)c1cc(Cc2ccc(Cl)cc2)n2ccc(Cl)cc12 — 14-fold lower, 26 nM
- O=C(Nc1c(Cl)cncc1Cl)C(=O)c1cc(Cc2ccc(F)cc2)n2ccc(Cl)cc12 — 13-fold lower, 28 nM
- O=C(Nc1c(Cl)cncc1Cl)C(=O)c1cc(Cc2ccc(F)cc2)n2ccc(F)cc12 — 28-fold lower, 13 nM
- O=C(Nc1c(Cl)cncc1Cl)C(=O)c1cc(Cc2ccc(O)cc2)n2ccc(Cl)cc12 — 180-fold lower, 2 nM
- COc1ccc(Cc2cc(C(=O)C(=O)Nc3c(Cl)cncc3Cl)c3cc(Cl)ccn23)cc1 — 30-fold lower, 12 nM
- N#Cc1ccc(Cc2cc(C(=O)C(=O)Nc3c(Cl)cncc3Cl)c3cc(Cl)ccn23)cc1 — 4.4-fold lower, 82 nM
- O=C(Nc1c(Cl)c[n+]([O-])cc1Cl)C(=O)c1cc(Cc2ccc(F)cc2)n2ccc(Cl)cc12 — 6.7-fold lower, 54 nM
- O=C(Nc1c(Cl)c[n+]([O-])cc1Cl)C(=O)c1cc(Cc2ccc(F)cc2)n2ccc(F)cc12 — 20-fold lower, 18 nM
- O=C(Nc1c(Cl)c[n+]([O-])cc1Cl)C(=O)c1cc(Cc2ccc(Cl)cc2)n2ccccc12 — 19-fold lower, 19 nM
- COc1ccc(Cc2cc(C(=O)C(=O)Nc3c(Cl)c[n+]([O-])cc3Cl)c3ccccn23)cc1 — 4.5-fold lower, 80 nM
- O=C(Nc1c(Cl)c[n+]([O-])cc1Cl)C(=O)c1cc(Cc2ccc(O)cc2)n2ccccc12 — 12-fold lower, 29 nM
- O=C(Nc1c(Cl)cccc1Cl)C(=O)c1cc(Cc2ccc(F)cc2)n2ccccc12 — 28-fold higher, 10000 nM
- O=C(Nc1c(Cl)cc(C(F)(F)F)cc1Cl)C(=O)c1cc(Cc2ccc(F)cc2)n2ccccc12 — 28-fold higher, 10000 nM
- O=C(Nc1c(Cl)cncc1Cl)C(=O)c1cc(Cc2ccc(F)cc2)c2ccccn12 — 60-fold lower, 6 nM
- O=C(Nc1c(Cl)c[n+]([O-])cc1Cl)C(=O)c1cc(Cc2ccc(F)cc2)c2ccccn12 — 12-fold lower, 29 nM
- O=C(Nc1c(Cl)cncc1Cl)C(=O)c1cn(Cc2ccc(F)cc2)c2ccc(O)cc12 [AWD-12-281] — 26-fold lower, 14 nM
